A short description of experiment [1]: Inhibition of voltage-gated calcium channel Cav-mediated late-sustained current in Periplaneta americana (American cockroach) DUM neurons assessed as measured at holding potential -80 mV depolarized to +40 mV after 10 min by whole cell patch clamp assay in presence of CdCl2. For orientation: Patch clamp records ionic current or voltage across a cell membrane.
Experiment [2] in a line: Inhibition of voltage-gated calcium channel Cav-mediated fast-transient current in Periplaneta americana (American cockroach) DUM neurons assessed as measured at holding potential -80 mV depolarized to +40 mV after 10 min by whole cell patch clamp assay in presence of CdCl2.

Bridge positions count the residues as written; N and C are the ends. Peptide text beside a SMILES is read from it.

For the molecule `CSCC[C@@H]1NC(=O)[C@H](CC(=O)O)NC(=O)[C@H](CCC(=O)O)NC(=O)[C@@H]2CSSC[C@H](NC(=O)[C@@H](N)Cc3ccc(O)cc3)C(=O)N[C@@H](CCC(N)=O)C(=O)N[C@@H](CCCCN)C(=O)N[C@@H](Cc3ccccc3)C(=O)N[C@@H](CC(C)C)C(=O)N[C@@H](Cc3c[nH]c4ccccc34)C(=O)N[C@@H]([C@@H](C)O)C(=O)N[C@H]3CSSC[C@H](NC(=O)[C@H](C(C)C)NC1=O)C(=O)N[C@@H](CCC(=O)O)C(=O)N[C@@H](CC(C)C)C(=O)N[C@@H](Cc1c[nH]c4ccccc14)C(=O)N[C@H](C(=O)N[C@@H](CCCCN)C(=O)N[C@@H](CC(C)C)C(=O)N[C@@H](CCC(=O)O)C(=O)N[C@@H](CCCCN)C(=O)O)CSSC[C@H](NC(=O)[C@H](CCCCN)NC(=O)[C@H](CCCNC(=N)N)NC(=O)[C@H](CCC(=O)O)NC(=O)[C@H]([C@@H](C)O)NC(=O)[C@H](CC(=O)O)NC3=O)C(=O)N2` (H-YCQKFLWTCDTERKCCEDMVCELWCKLEK-OH; disulfide 2-16, 9-21, 15-25), the IC50 in experiment [1] and in experiment [2] was 3.7 nM throughout.

As for `CSCC[C@@H]1NC(=O)[C@H](CCCCN)NC(=O)[C@H](Cc2ccccc2)NC(=O)[C@H](CCC(N)=O)NC(=O)[C@@H](NC(=O)[C@@H](N)Cc2ccc(O)cc2)CSSC[C@@H]2NC(=O)[C@@H]3CSSC[C@@H](C(=O)N[C@@H](CCCCN)C(=O)N[C@@H](CC(C)C)C(=O)N[C@@H](CC(N)=O)C(=O)N[C@@H](CC(C)C)C(=O)O)NC(=O)[C@H](Cc4c[nH]c5ccccc45)NC(=O)[C@H](CC(C)C)NC(=O)[C@H](CCCNC(=N)N)NC(=O)[C@H](CSSC[C@H](NC(=O)[C@H]([C@@H](C)O)NC(=O)[C@H](Cc4c[nH]c5ccccc45)NC1=O)C(=O)N[C@@H](CC(=O)O)C(=O)N[C@@H](CO)C(=O)N[C@@H](CCC(=O)O)C(=O)N[C@@H](CCCNC(=N)N)C(=O)N[C@@H](CCCCN)C(=O)N3)NC(=O)[C@H](C(C)C)NC(=O)[C@H](CCSC)NC(=O)[C@H](CC(=O)O)NC(=O)[C@H](CCC(=O)O)NC2=O`, the IC50 in experiment [1] stood at 19 nM; in experiment [2] it was 25 nM.

As to `CSCC[C@@H]1NC(=O)[C@H](CC(=O)O)NC(=O)[C@H](CCC(=O)O)NC(=O)[C@@H]2CSSC[C@H](NC(=O)[C@@H](N)Cc3ccc(O)cc3)C(=O)N[C@@H](CCC(N)=O)C(=O)N[C@@H](CCCCN)C(=O)N[C@@H](Cc3ccccc3)C(=O)N[C@@H](CC(C)C)C(=O)N[C@@H](Cc3c[nH]c4ccccc34)C(=O)N[C@@H]([C@@H](C)O)C(=O)N[C@H]3CSSC[C@H](NC(=O)[C@H](C(C)C)NC1=O)C(=O)N[C@@H](CCC(=O)O)C(=O)N[C@@H](CC(C)C)C(=O)N[C@@H](Cc1c[nH]c4ccccc14)C(=O)N[C@H](C(=O)N[C@@H](CCCCN)C(=O)N[C@@H](Cc1ccc(O)cc1)C(=O)N[C@@H](CCCCN)C(=O)N[C@@H](CCC(=O)O)C(=O)O)CSSC[C@H](NC(=O)[C@H](CCCCN)NC(=O)[C@H](CCCNC(=N)N)NC(=O)[C@H](CCC(=O)O)NC(=O)[C@H]([C@@H](C)O)NC(=O)[C@H](CC(=O)O)NC3=O)C(=O)N2` (H-YCQKFLWTCDTERKCCEDMVCELWCKYKE-OH; disulfide 2-16, 9-21, 15-25), the IC50 in experiment [1] is 26 nM; in experiment [2] it was 25 nM.

What is called IC50 is the concentration needed to halve the response being measured.

The values are drawn from BindingDB's records for doi:10.1124/mol.110.070540 (University of Technology Sydney, 2011).
